These are literature values, as cited in publication PMC9088800, “Expanded LUXendin Color Palette for GLP1R Detection and Visualization In Vitro and In Vivo” (JACS Au, 2022).

The conditions of this data set: phase III trials, combined with lifestyle interventions. From the text: The glucagon-like peptide-1 receptor (GLP1R) is a class B G protein-coupled receptor involved in the regulation of glucose homeostasis, food intake, and inflammation.[1],[2] As such, GLP1R agonist (GLP1RA) therapy has become a mainstay of type-2 diabetes treatment during the past decade, with a number of drugs on the market based upon stabilized analogues of glucagon-like peptide-1.[3] Most recently, phase III trials of the third-generation semaglutide have shown a ∼15% reduction in body weight when combined with lifestyle interventions,[4] leading to the approval of GLP1RAs as the first nonsu ...

For semaglutide, the “Reduction in body weight” value is recorded as around 15%.
